In patent publication US5221606A, “Reagent and kit for enzyme assay comprising a substrate consonant with given enzyme to be assayed” (King's College London, priority 1987, dated 1993):

Legend:
lipases = test: substrate test with lipases; assay type: biochemical
esterases = test: substrate test with esterases; assay type: biochemical
[1] = solubility in water or aqueous buffer
carboxyesterase = test: substrate test with carboxyesterase; assay type: biochemical
Description: The serum samples were diluted by a factor of 10 prior to the assay. The substrate solution and the diluted sera were then preincubated at 37° C. in a water bath. Aliquots (0.75 ml) of the substrate solution were then pipetted into small plastic tubes (2 ml capacity), and 0.05 ml samples of the sera were added to each of the substrate aliquots and shaken vigorously to ensure adequate mixing. A blank was run by substituting water (0.05 ml) for the serum. The reaction was stopped after 10 min by the addition of the stopping buffer (0.25 ml) [prepared by dissolving DABCO (22.4 g) in water (200 ml) and adjusting the pH to 10 by the addition of a little conc. hydrochloric acid. The resulting mixture was then made up to 1000 ml with acetone]. […] [formula] where t=time of incubation in hours
Otherwise it was carried out in exactly the same ways as above

stability on storage = assay type: physicochemical; conditions: potassium salt compared with free acid

CCCCCCCCCC(=O)Oc1c(OC)cc(C=C2SC(=S)N(CC(=O)O)C2=O)cc1OC [11d, n=8]
activity as substrate for lipase (lipases): good substrate

COc1cc(/C=C/c2cc[n+](C)c3ccccc23)cc(OC)c1OC(=O)c1ccccc1 [24e, 4-[2(4-Benzoyloxy-3,5-dimethoxyphenyl)-vinyl]-1-methylquinolinium iodide]
activity as substrate for esterases (esterases): substrate for esterases | solubility ([1]; water): < 250 µM

CCCC(=O)Oc1c(OC)cc(C=C2SC(=S)N(CC(=O)O)C2=O)cc1OC [11d, n=2, 5-(Butanoyloxy-3,5-dimethoxyphenylmethylene)-2-thioxothiazolidin-4-one-3-ethanoic acid]
quality as substrate for / cleavage by carboxyesterase (carboxyesterase): readily cleaved | stability on standing (stability on storage): slowly decomposed on standing | solubility in alkaline buffers ([1]; alkaline buffers (pH 8 etc.)): readily dissolved | solubility ([1]; water or aqueous buffer, aqueous buffer): > 2000 µM

CCCCCCCCC(=O)Oc1c(OC)cc(C=C2SC(=S)N(c3ccc(C(=O)O)cc3)C2=O)cc1OC [Nonanoate]
activity as substrate for lipase (lipases): exhibited enzymatic activity
